Here are results for one compound from patent US20250170258A1, “DOSAGE REGIMEN” (priority 2022, published 2025).

This test relates to pancreatic cancer PAXF 1657 patient-derived xenograft. Nature of the test: pancreatic cancer PAXF 1657 patient-derived xenograft model. The class given is in vivo. As to conditions: PAXF 1657 PDX, tested alone (single agent). The protocol: Gemcitabine is a nucleoside metabolic inhibitor. It inhibits DNA synthesis by inhibiting the ribonucleotide reductase, cell cycle-specific for the S-phase (also blocks cellular progression at G1/S-phase). It has been used as monotherapy or combination chemotherapy to treat various cancers. […] ADCT-601 and gemcitabine were tested either alone or in combination in the pancreatic cancer PAXF 1657 patient-derived xenograft model.

The structures appear in SMILES notation.

For the compound `Nc1ccn([C@@H]2O[C@H](CO)[C@@H](O)C2(F)F)c(=O)n1` [gemcitabine], the anti-tumour activity result is “limited anti-tumour activity”.
